We go through two compounds from ChEMBL document CHEMBL1150976, “The selectivity of protein kinase inhibitors: a further update” (Biochem J, 2007).

Assay [1] has as its target T1, Mitogen-activated protein kinase 15 (Homo sapiens) (UniProt Q8TD08).
T1 sequence (whole entry): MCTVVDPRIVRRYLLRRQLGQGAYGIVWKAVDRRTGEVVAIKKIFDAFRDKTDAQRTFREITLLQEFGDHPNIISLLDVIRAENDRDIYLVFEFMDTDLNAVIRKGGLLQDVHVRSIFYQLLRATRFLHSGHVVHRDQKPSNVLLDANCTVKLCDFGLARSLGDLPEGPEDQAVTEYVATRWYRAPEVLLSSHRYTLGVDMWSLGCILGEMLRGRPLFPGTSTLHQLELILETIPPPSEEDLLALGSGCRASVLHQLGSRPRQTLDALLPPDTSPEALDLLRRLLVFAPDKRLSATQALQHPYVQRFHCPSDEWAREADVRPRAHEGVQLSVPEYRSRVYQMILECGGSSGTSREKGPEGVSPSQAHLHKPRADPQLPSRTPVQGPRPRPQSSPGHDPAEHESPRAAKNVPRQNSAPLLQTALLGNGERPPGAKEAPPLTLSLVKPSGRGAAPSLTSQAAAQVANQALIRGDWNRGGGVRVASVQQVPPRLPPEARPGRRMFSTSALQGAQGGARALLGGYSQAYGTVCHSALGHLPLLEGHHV
Put plainly: Percentage ERK8 activity remaining in the presence of 3uM inhibitor.

Assay [2] has as its target Serine/threonine-protein kinase pim-2 (Homo sapiens, UniProt Q9P1W9). Nature of the assay: Percentage PIM2 activity remaining in the presence of 3uM inhibitor.
For assay [3], the species on record is Rattus norvegicus. Put plainly: Percentage AMPK activity remaining in the presence of 3uM inhibitor.
The target in assay [4] is Serine/threonine-protein kinase Nek7 (Homo sapiens) (UniProt Q8TDX7). Put plainly: Percentage NEK7 activity remaining in the presence of 3uM inhibitor.
Chain of Serine/threonine-protein kinase Nek7 (Homo sapiens) (Q8TDX7 whole entry, looked up): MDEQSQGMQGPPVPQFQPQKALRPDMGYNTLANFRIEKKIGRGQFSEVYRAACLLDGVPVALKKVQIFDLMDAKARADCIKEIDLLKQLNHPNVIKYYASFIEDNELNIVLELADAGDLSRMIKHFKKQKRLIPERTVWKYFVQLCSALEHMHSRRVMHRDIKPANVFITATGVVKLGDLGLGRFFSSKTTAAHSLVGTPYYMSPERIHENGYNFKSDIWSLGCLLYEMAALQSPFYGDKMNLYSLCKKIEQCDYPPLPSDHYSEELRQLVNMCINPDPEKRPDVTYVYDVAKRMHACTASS
For assay [5], the target named is T2, Mitogen-activated protein kinase 13 (Homo sapiens) (UniProt O15264).
T2 sequence (whole entry): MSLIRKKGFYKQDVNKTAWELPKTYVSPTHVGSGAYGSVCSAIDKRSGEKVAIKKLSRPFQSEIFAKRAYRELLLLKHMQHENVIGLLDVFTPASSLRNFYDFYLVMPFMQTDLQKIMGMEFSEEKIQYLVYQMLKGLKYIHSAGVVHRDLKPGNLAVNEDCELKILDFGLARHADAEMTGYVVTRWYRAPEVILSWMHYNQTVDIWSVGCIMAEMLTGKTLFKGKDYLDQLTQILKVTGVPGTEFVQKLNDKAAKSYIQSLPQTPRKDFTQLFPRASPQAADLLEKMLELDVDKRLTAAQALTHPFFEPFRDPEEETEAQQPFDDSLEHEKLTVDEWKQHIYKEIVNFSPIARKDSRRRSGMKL
Put plainly: Percentage p38delta activity remaining in the presence of 3uM inhibitor.

Assay [6] addresses RAC-alpha serine/threonine-protein kinase (Homo sapiens) (UniProt P31749). Put plainly: Percentage PKBalpha activity remaining in the presence of 3uM inhibitor.
The target of assay [7] is Proto-oncogene tyrosine-protein kinase Src (Gallus gallus) (UniProt P00523). Put plainly: Percentage Src activity remaining in the presence of 2uM inhibitor.
The target in assay [8] is T3, Serine/threonine-protein kinase D1 (Homo sapiens) (UniProt Q15139).
T3 sequence (whole entry): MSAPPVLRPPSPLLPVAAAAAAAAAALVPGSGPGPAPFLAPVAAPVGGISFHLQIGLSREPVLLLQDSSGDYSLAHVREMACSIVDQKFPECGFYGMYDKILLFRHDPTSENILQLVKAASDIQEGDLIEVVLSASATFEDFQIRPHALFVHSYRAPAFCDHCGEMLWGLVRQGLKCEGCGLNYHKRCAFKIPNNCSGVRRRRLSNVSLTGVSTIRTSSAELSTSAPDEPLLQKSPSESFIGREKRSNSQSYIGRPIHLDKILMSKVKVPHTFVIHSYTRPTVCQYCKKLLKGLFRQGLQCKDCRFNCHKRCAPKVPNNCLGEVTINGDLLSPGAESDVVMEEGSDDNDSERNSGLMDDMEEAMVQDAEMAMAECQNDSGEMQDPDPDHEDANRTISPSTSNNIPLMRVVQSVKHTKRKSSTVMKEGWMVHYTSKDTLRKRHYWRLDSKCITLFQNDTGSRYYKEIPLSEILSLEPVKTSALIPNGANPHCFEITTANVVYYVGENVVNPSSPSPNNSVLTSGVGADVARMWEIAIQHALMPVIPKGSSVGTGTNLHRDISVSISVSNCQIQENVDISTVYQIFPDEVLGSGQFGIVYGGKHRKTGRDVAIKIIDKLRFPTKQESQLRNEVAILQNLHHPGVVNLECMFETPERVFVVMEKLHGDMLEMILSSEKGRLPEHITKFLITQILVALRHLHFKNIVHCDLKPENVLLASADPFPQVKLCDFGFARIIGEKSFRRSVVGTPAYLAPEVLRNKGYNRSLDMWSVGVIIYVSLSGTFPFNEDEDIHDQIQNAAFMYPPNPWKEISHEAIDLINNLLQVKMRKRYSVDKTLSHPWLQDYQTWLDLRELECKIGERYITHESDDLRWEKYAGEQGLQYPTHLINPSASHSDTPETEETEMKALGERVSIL
Put plainly: Percentage PKD1 activity remaining in the presence of 2uM inhibitor.

The target of assay [9] is T4, Eukaryotic elongation factor 2 kinase (Homo sapiens) (UniProt O00418).
T4 sequence (whole entry): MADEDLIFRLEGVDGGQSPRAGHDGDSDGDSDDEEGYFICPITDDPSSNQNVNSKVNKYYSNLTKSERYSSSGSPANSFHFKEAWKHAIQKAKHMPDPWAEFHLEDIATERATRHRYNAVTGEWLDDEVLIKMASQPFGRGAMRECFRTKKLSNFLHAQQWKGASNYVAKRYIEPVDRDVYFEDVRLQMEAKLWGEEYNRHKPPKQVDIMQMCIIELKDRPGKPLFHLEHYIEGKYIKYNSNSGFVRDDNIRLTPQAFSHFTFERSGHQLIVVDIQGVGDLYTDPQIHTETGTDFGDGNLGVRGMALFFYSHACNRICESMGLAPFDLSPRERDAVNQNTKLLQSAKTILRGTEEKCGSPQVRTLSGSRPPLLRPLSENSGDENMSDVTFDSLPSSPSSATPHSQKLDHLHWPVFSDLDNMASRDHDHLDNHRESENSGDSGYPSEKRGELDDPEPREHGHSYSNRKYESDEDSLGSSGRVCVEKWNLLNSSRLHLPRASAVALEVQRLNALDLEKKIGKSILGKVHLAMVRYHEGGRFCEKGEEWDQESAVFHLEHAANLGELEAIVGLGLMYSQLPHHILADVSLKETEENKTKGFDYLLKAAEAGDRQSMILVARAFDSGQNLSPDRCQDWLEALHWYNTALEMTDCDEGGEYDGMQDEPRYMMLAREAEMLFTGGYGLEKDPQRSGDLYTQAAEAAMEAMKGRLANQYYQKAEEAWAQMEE
Put plainly: Percentage EF2K activity remaining in the presence of 2uM inhibitor.

For assay [10], the target named is Ribosomal protein S6 kinase beta-1 (Homo sapiens, UniProt P23443). Nature of the assay: Percentage S6K1 activity remaining in the presence of 2uM inhibitor.
Chain of Ribosomal protein S6 kinase beta-1 (P23443 whole entry, looked up): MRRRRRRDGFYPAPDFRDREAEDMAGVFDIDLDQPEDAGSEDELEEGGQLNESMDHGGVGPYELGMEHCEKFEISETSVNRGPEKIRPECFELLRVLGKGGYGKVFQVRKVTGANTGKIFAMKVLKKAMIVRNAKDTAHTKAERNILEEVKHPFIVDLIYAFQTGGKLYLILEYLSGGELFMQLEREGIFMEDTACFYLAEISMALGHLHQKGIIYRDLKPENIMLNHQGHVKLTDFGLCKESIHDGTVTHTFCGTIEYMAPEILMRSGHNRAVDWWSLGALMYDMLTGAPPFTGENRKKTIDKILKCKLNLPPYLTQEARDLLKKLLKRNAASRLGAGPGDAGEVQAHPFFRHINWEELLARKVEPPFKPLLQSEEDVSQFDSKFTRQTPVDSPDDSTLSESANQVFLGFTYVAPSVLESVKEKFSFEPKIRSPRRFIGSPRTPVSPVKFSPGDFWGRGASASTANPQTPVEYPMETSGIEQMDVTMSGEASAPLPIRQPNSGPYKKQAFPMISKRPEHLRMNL
The target of assay [11] is Protein kinase C alpha type (Homo sapiens) (UniProt P17252). Put plainly: Percentage PKCalpha activity remaining in the presence of 2uM inhibitor.

Chain of Serine/threonine-protein kinase pim-2 (Q9P1W9 whole entry, looked up): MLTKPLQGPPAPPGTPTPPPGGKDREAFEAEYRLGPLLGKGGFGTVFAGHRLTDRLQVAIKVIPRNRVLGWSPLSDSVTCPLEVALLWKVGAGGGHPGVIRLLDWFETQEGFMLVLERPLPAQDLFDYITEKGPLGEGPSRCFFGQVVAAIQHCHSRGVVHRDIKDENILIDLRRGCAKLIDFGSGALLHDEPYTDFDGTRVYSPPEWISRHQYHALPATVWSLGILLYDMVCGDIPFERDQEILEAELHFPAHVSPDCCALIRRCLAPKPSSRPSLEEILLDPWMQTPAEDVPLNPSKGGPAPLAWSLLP
Chain of RAC-alpha serine/threonine-protein kinase (Homo sapiens) (P31749 whole entry): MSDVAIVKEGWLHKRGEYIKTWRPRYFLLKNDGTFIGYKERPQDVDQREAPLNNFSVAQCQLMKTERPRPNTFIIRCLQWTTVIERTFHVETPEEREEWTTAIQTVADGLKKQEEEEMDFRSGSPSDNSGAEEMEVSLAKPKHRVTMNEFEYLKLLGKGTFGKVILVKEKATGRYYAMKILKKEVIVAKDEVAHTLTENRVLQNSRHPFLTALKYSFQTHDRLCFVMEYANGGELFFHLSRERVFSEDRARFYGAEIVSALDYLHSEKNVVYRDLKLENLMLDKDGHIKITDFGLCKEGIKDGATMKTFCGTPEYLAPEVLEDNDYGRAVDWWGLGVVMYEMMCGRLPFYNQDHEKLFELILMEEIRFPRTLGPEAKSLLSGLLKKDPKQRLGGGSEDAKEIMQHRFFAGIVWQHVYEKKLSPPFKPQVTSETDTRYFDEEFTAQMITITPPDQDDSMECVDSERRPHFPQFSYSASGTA

On to `Cc1ccc(-c2c(C(=O)CF)n(CCCO)c3ncnc(N)c23)cc1`, for which the Activity in assay [1] came out at 58%; in assay [2] it was 85%; in assay [3], 79%; in assay [4], 92%; in assay [5] it was 103%; in assay [6], 82%.
Take `Cn1cc(C2=C(c3ccc(Cl)cc3Cl)C(=O)NC2=O)c2ccccc21`: the Activity in assay [7] amounted to 83%; in assay [8] it was 100%; in assay [9] it was 98%; in [10], 86%; in assay [11], 73%.
